Data on one compound can be found in patent US5506213A, “Adminstration of 2'-halo-2'-deoxy adenosine to treat inflammatory bowel disease” (priority 1994, dated 1996).

For one experiment, the system named is IL-6. In words: Spontaneous IL-6 secretion by cultured monocytes, B9.9 hybridoma bioassay. Format: cell-based, human. As to the method: FIG. 6 is a graph that illustrates the effects of relatively low doses of CdA used to contact monocytes for a 72 hour time period. Monocyte release of interleukin-6 (IL-6; closed diamonds) and phagocytosis of antibody-coated red blood cells (RBC; closed squares) were examined, as was the viability of the cultured monocytes (open squares). Effects are expressed as a percentage of control values versus the CdA concentration in nanomoles (nM).
The ability of dialyzed culture supernatants to promote proliferation of B9.9 hybridoma cells is a measure of IL-6 activity (Helle et al. (1988) Eur. J. Immunol., 18:1535-1540). Monocytes spontaneously secrete IL-6 upon adherence to plastic during short-term in vitro culture (Guerne et al. (1989) J. Clin. Invest., 83:585-592). Monocytes cultured in autologous plasma 20 percent for three days secreted approximately 18 U per ml of IL-6, as determined by the bioassay standard curve using rIL-6.
The spontaneous secretion, of IL-6 by cultured monocytes was measured by the hybridoma growth factor bioassay as described by Guerne et al. (1989) J. Clin. Invest., 83:585-592. In this assay, the proliferation of a B9.9 murine hybridoma subclone is dependent on the presence of IL-6. […]

The test system of experiment [1] is CEM, Increased 5'-nucleoside. In words: Direct comparative cytotoxicity assay (Table II), CEM increased 5'-nucleoside. It counts as cell-based, human. To be noted: Homo sapiens, 120 h, read-out: ID50: concentration that produced 50 percent reduction in all numbers after five days. The source says:
(§1) The two compounds, CdA and CAFdA, were also compared for in vitro activity against another group of human cell lines in a direct comparative assay.
(§2) ^1 Concentration that produced 50 percent reduction in all numbers
(§3) ^2 CEM cells are T lymphoblasts; DHL9 cells are lymphoblasts.

The test system of experiment [2] is RNA synthesis in monocytes. In words: Monocyte RNA synthesis, 3H-uridine incorporation. The settings on record: 1 nM CdA; detectable after the first hour of culture. It counts as cell-based, human. As to the method: FIG. 5 is a graph showing the biochemical effects induced in human monocytes in vitro by exposure to […] CdA over a period of 16 hours. The effects of CdA exposure upon monocyte viability (open squares), NAD content (closed squares), RNA synthesis (open circles) and DNA strand breaks (ds-DNA; closed circles) are illustrated.
Monocyte RNA synthesis following CdA exposure was studied by measuring the incorporation of ^3 H-uridine. Monocytes were exposed to ^3 H-uridine (20 μCi/10^6 cells) during the final 1 hour of CdA (1 nM) exposure. Radioactivity measured was contained in trichloroacetic acid precipitates collected onto cellulose acetate filters and measured by liquid scintillation counting.

The next experiment relates to DHL9, wild type. In words: Direct comparative cytotoxicity assay (Table II), DHL9 wild type. It counts as cell-based, human. The settings on record: Homo sapiens, 120 h, read-out: ID50: concentration that produced 50 percent reduction in all numbers after five days.
Excerpt: as §1, §2, §3

Experiment [3] has as its system delayed-type hypersensitivity (DTH) response. In words: Delayed-type hypersensitivity to ovalbumin in guinea pigs, oral and intraperitoneal treatment. Format: in vivo, guinea pig. The settings on record: dexamethasone 5 mg/kg, CdA or CAFdA 1 mg/kg, 24 and 48 hours, p<0.01. As to the method: Delayed-type hypersensitivity (DTH) is a cell-mediated immune response that typically takes longer than 12 hours to develop. In the guinea pig, a DTH reaction to an antigen can be established by first immunizing the animal with the antigen in an adjuvant such as Freund's complete adjuvant. Subsequent intradermal injection of the antigen causes no change for at least 10 hours, after which there is a gradual increase in erythema and swelling in response to antigen injection. This response peaks about at about 24 hours after challenge, then gradually subsides.
Histologically, the inflammatory response is characterized by intense inundation of the site with mononuclear cells, of which about half are lymphocytes and the other half monocytes. DTH is therefore an indicator of a monocyte-mediated immune reaction.
In one study, guinea pigs were sensitized to ovalbumin in adjuvant. The animals were then treated either orally or intraperitoneally with saline (control), dexamethasone (5 mg/kg), CdA (1 mg/kg) or CAFdA (1 mg/kg). The animals were then injected with ovalbumin intradermally to elicit the DTH response. The mean area of the swelling size was measured for each animal (nine or ten animals were treated for each protocol).

Experiment [4] concerns DHL9, Increased ribonucleotide reduction. In words: Direct comparative cytotoxicity assay (Table II), DHL9 increased ribonucleotide reduction. Format: cell-based, human. To be noted: Homo sapiens, 120 h, read-out: ID50: concentration that produced 50 percent reduction in all numbers after five days.
Excerpt: as §1, §2, §3

In the next experiment the test system is normal human monocytes. In words: In vitro cytotoxicity toward human monocytes (MTT reduction assay). Format: cell-based. The settings on record: for IC50: Homo sapiens, Monocyte. The source says: The percentage of viable cells remaining after treatment (ordinate) is plotted against the concentration of CdA utilized (abscissa), on a linear scale.
Peripheral blood monocytes and lymphocytes were isolated by well known methods from normal subjects. […] The human fibroblast cell line GMO1380 was obtained originally from the NIGMS Human Genetic Mutant Cell Repository, Camden, N.J., and cultured under the same conditions as above. That cell line was from a normal fetal lung.
Meth., 65: 55-63. After culturing for up to five days, 3-(4,5-dimethylthiazol-2-yl)-2,5-diphenyl tetrazolium bromide (MTT) at 0.2 mg (40 μl) was admixed with each well and the incubation was continued for another 4 hours. The plates were then centrifuged at 1000×g for 10 minutes, and supernatants were carefully aspirated with a finely drawn pipette.
Acidified isopropanol (100 μl; using 0.04N HCl) was added to each well.
Viable cell numbers were determined using a Dynatech microplate spectrophotometer, measuring absorbance at a wavelength of 570 nanometers (nm), using a reference wavelength of 630 nm.
A general note: Tetrazolium dyes change colour on reduction, which living cells bring about.

Experiment [5] has as its system antigen-induced arthritis. In words: Antigen-induced arthritis in rabbits. It counts as in vivo. The settings on record: CdA 1 mg/kg, tepoxalin 25 mg/kg, naproxen 5 mg/kg. As to the method:
Antigen-induced arthritis in rabbits is an animal model of rheumatoid arthritis. In this model, the rabbits are sensitized to an antigen such as ovalbumin or methylated bovine serum albumin in an adjuvant. Several weeks later, the same antigen is injected directly into the joints of the animal. […] Pettipher et al., Br. J. Exp. Path., 69:113-122 (1988).
Rabbits with antigen-induced arthritis were treated with CdA (1 mg/kg), tepoxalin (25 mg/kg) or naproxen (5 mg/kg).

Molecules are shown by their SMILES. Read-outs that look alike come from different tables or passages of the source.

As for `Nc1nc(Cl)nc2c1ncn2[C@H]1C[C@H](O)[C@@H](CO)O1` [CdA, 2-chloro-9,1'-beta-D-2'-deoxyribosyladenine], the “supernatant IL-6” value in the experiment with IL-6 (cytotoxic concentrations of CdA) was “high levels of IL-6”. For the same compound, the “spontaneous secretion of IL-6 into the culture supernatant” value in the experiment on IL-6 (sub-toxic concentrations of CdA, three days) is recorded as “inhibited the spontaneous secretion of IL-6”. Further, the IC50 in experiment [1] was 60 nM; with DHL9, wild type it was 80 nM; in experiment [4], 4000 nM; in the experiment on normal human monocytes (120 h, five days exposure (FIG. 2), read-out: CdA concentration at which 50 percent of the cultured monocytes were killed), 20 nM; in the experiment with normal human monocytes (another study, freshly isolated monocytes, read-out: CdA concentration at which 50 percent of freshly isolated monocytes were killed) it was 22 nM. Moreover, the RNA synthesis entry in experiment [2] is “progressive reduction in RNA synthesis”. Besides, the figures for the “swelling after ovalbumin challenge compared to saline control” value in experiment [3] (intraperitoneal) and in experiment [3] (oral) were “significant inhibition of swelling” and “ineffective”, respectively. Besides, in the experiment with normal human monocytes (deoxycytidine 100 μM), the “monocyte sensitivity to CdA in the presence of deoxycytidine” value is listed as “substantially reduced”. The “pathological examination of joints compared to untreated controls” value in experiment [5] was “milder inflammatory response coupled with much less tissue damage”.
